In assay [1] the target is T1, human GLP-1R (Homo sapiens, UniProt P43220).
T1 construct: expressed in transfected cells
Briefly: GLP-1 receptor efficacy assay (cAMP formation, FlashPlate cAMP kit). The class given is cell-based. Particulars: HEK293 cells expressing human GLP-1R; cAMP formed, 15 min at 37° C. Here is the method: (§1) The 5′-end primers additionally encoded a near Kozak consensus sequence to ensure efficient translation.
(§2) 48 hr after transfection, cells were seeded for limited dilution cloning and selected with 1 mg/ml G418 in the culture medium.
(Cyclic AMP is a second messenger, typically raised through Gs and lowered through Gi signalling.)

Assay [2] has as its target T2, human glucagon-R (Homo sapiens, UniProt P47871).
T2 construct: expressed in transfected cells
Briefly: Glucagon receptor efficacy assay (cAMP formation, FlashPlate cAMP kit). The class given is cell-based. Particulars: HEK293 cells expressing human glucagon-R; cAMP formed, 15 min at 37° C.; read-out: EC50 nM) GluR. As to the method: as §1, §2

Starred links: 1 amine or outer side, 2 acyl side, 3 side chain; linkers in the order of their positions; H or OH if unused. Non-standard residues stand in square brackets, D forms with d. Residues, ends and D or L forms follow the SMILES beside them. Groups on a side chain read outwards from the residue. *: point of attachment. γGlu = O=C(O)[C@H](CCC(=O)[*:2])N[*:1]; Palmitoyl = CCCCCCCCCCCCCCCC(=O)*; Aib = CC(C)(N)C(=O)O

Usually EC50 stands for the concentration that produces a half-maximal response.

T1 sequence (P43220 24-463): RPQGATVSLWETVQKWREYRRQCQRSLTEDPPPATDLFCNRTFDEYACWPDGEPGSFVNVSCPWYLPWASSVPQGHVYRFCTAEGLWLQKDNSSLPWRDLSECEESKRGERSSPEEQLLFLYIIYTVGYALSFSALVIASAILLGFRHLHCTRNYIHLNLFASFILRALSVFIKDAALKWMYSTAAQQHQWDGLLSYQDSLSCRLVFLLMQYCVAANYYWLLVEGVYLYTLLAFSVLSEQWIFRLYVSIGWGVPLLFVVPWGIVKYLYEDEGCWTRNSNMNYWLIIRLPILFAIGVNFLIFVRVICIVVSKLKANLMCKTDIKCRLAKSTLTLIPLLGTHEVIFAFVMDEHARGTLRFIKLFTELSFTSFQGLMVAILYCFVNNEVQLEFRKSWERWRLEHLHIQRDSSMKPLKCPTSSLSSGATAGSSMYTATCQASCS
T2 sequence (P47871 26-477): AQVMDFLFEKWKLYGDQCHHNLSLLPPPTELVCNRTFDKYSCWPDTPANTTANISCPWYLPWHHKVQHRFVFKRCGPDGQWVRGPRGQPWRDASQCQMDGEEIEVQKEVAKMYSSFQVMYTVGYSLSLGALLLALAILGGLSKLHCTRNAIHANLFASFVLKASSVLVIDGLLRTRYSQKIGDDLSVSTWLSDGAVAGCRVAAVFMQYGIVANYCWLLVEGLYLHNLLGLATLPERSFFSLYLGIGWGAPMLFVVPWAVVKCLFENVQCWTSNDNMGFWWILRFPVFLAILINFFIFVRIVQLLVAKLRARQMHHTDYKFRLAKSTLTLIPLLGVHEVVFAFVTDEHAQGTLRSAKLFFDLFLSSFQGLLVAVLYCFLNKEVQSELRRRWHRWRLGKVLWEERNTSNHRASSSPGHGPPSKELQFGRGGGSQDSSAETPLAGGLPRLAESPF

Turning to `CCCCCCCCCCCCCCCC(=O)N[C@@H](CCC(=O)NCCCC[C@H](NC(=O)[C@H](CO)NC(=O)[C@H](CCC(=O)O)NC(=O)[C@H](CC(C)C)NC(=O)[C@H](Cc1ccc(O)cc1)NC(=O)[C@H](CCCCN)NC(=O)[C@H](CO)NC(=O)[C@H](Cc1ccc(O)cc1)NC(=O)[C@H](CC(=O)O)NC(=O)[C@H](CO)NC(=O)[C@@H](NC(=O)[C@H](Cc1ccccc1)NC(=O)[C@@H](NC(=O)CNC(=O)[C@H](Cc1c[nH]cn1)NC(=O)C(C)(C)NC(=O)[C@@H](N)Cc1c[nH]cn1)[C@@H](C)O)[C@@H](C)O)C(=O)N[C@@H](C)C(=O)N[C@@H](C)C(=O)N[C@@H](CCC(=O)O)C(=O)N[C@@H](CCC(=O)O)C(=O)N[C@@H](Cc1ccccc1)C(=O)N[C@H](C(=O)N[C@@H](CCC(=O)O)C(=O)N[C@@H](Cc1c[nH]c2ccccc12)C(=O)N[C@@H](CC(C)C)C(=O)N[C@@H](CC(C)C)C(=O)N[C@@H](CCC(=O)O)C(=O)N[C@@H](C)C(N)=O)C(C)C)C(=O)O` [Compound 31] (H-H[Aib]HGTFTSDYSKYLESK([γGlu-Palmitoyl])AAEEFVEWLLEA-NH2), the EC50 was found to be 0.09 nM in assay [1] and 0.15 nM in assay [2].

The record behind these values is US9169310B2 (Zealand Pharma A/S, priority 2010, dated 2015).
